# From US20260137807A1, “COMPOSITIONS AND METHODS FOR DELIVERING A MACROMOLECULE TO A CELL” (AstraZeneca AB, priority 2022, published 2026)
# How the values were obtained:
# Type in all cases: cell-based
# HeLa_Luc705 cells = assay: Splice switching activity assay, 24 hr SMC treatment, Examples 4B/4D
# Description: (§1) HeLa_Luc705 cells were seeded in 96-well plates at 10,000 cells per well in growth media with 2 μM Luc705-SSO or 1 μM Luc705-SSO. The various SMCs were diluted directly into prepared growth media. After 24 hr to allow adherence and SSO internalization, 10 μl of diluted SMC was added into each well at indicated concentrations. For a positive control, SSOs were complexed with Lipofectamine 2000 for 30 min at RT and cells treated with a final concentration of 200 nM. ON concentrations above 200 nM would require LF2000 to be used in excess of the cells' toxicity threshold. After 24 hr treatment, cells were lysed with 0.1% TritonX-100 (Sigma Aldrich, cat no. X100) in 1× PBS (Gibco, cat no. 10010023).
# (§2) For the detection of luciferase activity, 30 μL of cell lysate was transferred to white-walled plates. The luciferase intensity in each well was immediately measured via luminometer following auto-injection of 25 μL Luciferin substrate as per the Promega Firefly Luciferase Assay System. The timing parameters of photon measurements were optimized for this procedure.
# as §1, with “The” for “HeLa_Luc705 cells were seeded in 96-well plates at 10,000 cells per well in growth media with 2 μM Luc705-SSO or 1 μM Luc705-SSO. The”
# N2A_Luc705 cells = assay: Splice switching activity assay, 24 hr SMC treatment, Examples 4C/4D; conditions: compounds at 5 μM, 1 μM Luc 705 SSO, FIG. 25B
# Description: as §1, with “U2OS_Luc705 and N2A_Luc705” for “HeLa_Luc705”, “with” for “with 2 μM Luc705-SSO or”
# as §2
# as §1, with “The” for “HeLa_Luc705 cells were seeded in 96-well plates at 10,000 cells per well in growth media with 2 μM Luc705-SSO or 1 μM Luc705-SSO. The”
# U2OS_Luc705 cells = assay: as above; conditions: compounds at 5 μM, 1 μM Luc 705 SSO, FIG. 25A
# Description: as §1, with “U2OS_Luc705 and N2A_Luc705” for “HeLa_Luc705”, “with” for “with 2 μM Luc705-SSO or”
# as §2
# as §1, with “The” for “HeLa_Luc705 cells were seeded in 96-well plates at 10,000 cells per well in growth media with 2 μM Luc705-SSO or 1 μM Luc705-SSO. The”
# HeLa mCherry-Gal9 cells = assay: mCherry-GAL9 recruitment assay; conditions: for quantitation of Gal9 recruitment over time / window in concentration between induction of endosomal rupture and cytotoxicity: HeLa; for quantitation of Gal9 recruitment over time: FIG. 8; for relocalisation of Gal9 from cytosolic to punctate: 10-point dose titration, 2 hours, FIG. 3; for window in concentration between induction of endosomal rupture and cytotoxicity: FIG. 5
# Excerpt: (§3) All compounds were subjected to a mCherry-GAL9 recruitment assay. Under normal conditions, mCherry-GAL9 is homogenously dispersed in the cytosol. When an endosomal leakage event is detected, mCherry-GAL9 translocates to the damaged endosome (Du Rietz et al. (2020) Nat. Commun. 11:1809) The resulting localization pattern of discrete puncta can be visualized and quantitated.
# (§4) HeLa and Huh7 cell lines stably expressing mCherry-GAL9 were generated as described by (bioRxiv) (Munson, M. et al. (2021) Communications Biology, 4(211): 1-14) and seeded into 384-well CellCarrier Ultra plates (PerkinElmer: 6007558) at 3000 or 3500 cells/well respectively, 16 h before experimental usage.
# (§5) Dose-response curves of select compounds were generated using an Echo 655T acoustic dispenser (Labcyte) to dispense the indicated compounds into source plates (Greiner: 781280) containing growth media. At experimental start points, media containing appropriate compounds and doses was transferred to plates using a liquid handling robot (Agilent Bravo).
# (§6) At assay endpoints, cells were washed 2× PBS at RT and fixed in 4% PFA (VWR: 9713.1000) for 15 mins/RT. Cells were washed a further 3× PBS before the addition of PBS+1 μg/ml Hoechst 33342 (ThermoFisher Scientific: H21492) for a minimum of 1 h before imaging.
# (§7) Plates were imaged using a spinning-disk confocal microscope (Yokogawa: CV7000) with a 20× objective (NA 0.75). Images were processed utilizing Columbus image-analysis software (PerkinElmer: v2.9.0) to identify and quantify cells and mCherry-GAL9 structures. The resulting data were processed and normalized in Spotfire (Tibco: v10.3) and plotted in Prism (Graphpad: v8.0.1). Image panels were assembled using the FigureJ plugin for FIJI. (Mutterer and Zinck (2013) J. Microsc. 252(1):89-91).
# (§8) Cells were subjected to a 10-point concentration dilution (0-15 μM) for 2 hours and then fixed and imaged (FIG. 3 and FIG. 4). Images were analyzed and curves were generated from both mCherry-GAL9 puncta quantitation and cell survival as determined by nuclear morphology (FIG. 5). The GAL9 recruitment response support the functional splice-switching data with SSOs, confirming the mCherry-GAL9 assay as a powerful tool for screening endosomolytic compounds and supporting the hypothesis that AZ2467 (Compound 6) and AZ4800 (Compound 2) promote SSO activity by inducing endosomal rupture. The GAL9 assay was again conducted, this time in live cells for 4 hours with select compounds for screening. Compounds were screened at 5 μM (FIG. 6-8) or 0.3125-10 μM (FIG. 35-38). FIG. 39 and FIG. 47 provide results for select compounds at various doses 0.3125-10 μM.
# Huh7 mCherry-Gal9 cells = assay: mCherry-GAL9 recruitment assay; conditions: for quantitation of Gal9 recruitment over time: Huh7, FIG. 7; for relocalisation of Gal9 from cytosolic to punctate: 10-point dose titration, 2 hours, FIG. 4; for window in concentration between induction of endosomal rupture and cytotoxicity: Huh7, FIG. 5
# Excerpt: as §3, §4, §5, §6, §7, §8
# mCherry-GAL9 cells = assay: mCherry-GAL9 assay in live cells for 4 hours, screening; conditions: 5 μM (FIG. 6-8)
# Description: as §8
# HeLa Luc705 cells = assay: Splice switching activity assay (Luc705 luciferase reporter), Example 4A
# Excerpt: HeLa Luc705 and Huh7 Luc705 cells were used to screen and characterize the SMC generated in Example 2 for their ability to increase levels of an SSO-induced splice variant by co-treatment of the cells with the SSO and SMC. The Luc705 reporter construct was used for quantitation of luciferase protein produced as a result of functional SSO delivery. (Kang et al. (1998) Biochemistry, 37(18):6235-6239; Rocha et al. (2016) Four Novel Splice-Switch Reporter Cell Lines: Distinct Impact of Oligonucleotide Chemistry and Delivery Vector on Biological Activity. Nucleic Acid Ther. 26(6):381). Briefly, a plasmid carrying the luciferase coding sequence interrupted by an insertion of intron 2 from β-globin pre-mRNA carrying a cryptic splice site was stably transfected into cells. Unless the aberrant slice site was masked by an antisense oligonucleotide, the pre-mRNA of luciferase was improperly processed.
# HeLa Luc705 and Huh7 Luc705 cells were seeded in 96-well plates at 10,000 cells per well in growth media containing 1 μM Luc705-SSO and incubated to allow adherence and oligo internalization. After 24 hours, 10 μl of SMC diluted in Growth Media (DMEM+10% FBS) was added into each well. After 2 hours, media was removed from the wells and replaced with fresh growth media for 4 hours to allow for translation of the variant proteins. The media was then removed, and cells were lysed with 0.1% Triton-PBS.
# To detect luciferase activity, 30 μL of cell lysate was transferred to white-walled 96-well plates. Luciferase intensity in each well was measured using a GloMax® 96 Microplate Luminometer machine (Promega) following auto-injection of 25 μL Luciferin substrate (Firefly Luciferase Assay System: Promega) per well. Photon measurements were acquired for 10 seconds, starting 2 seconds after injection.
# To determine whether AZ4800 (Compound 2, FIG. 1B) and SSO must be present in the cell media simultaneously for Compound 2 to produce its synergistic effects, the treatment plan was modified from the UNC2383 treatment plan detailed by Wang et al. (2017) ACS Chem. Biol. 12(8):1999-2007 to include a 24 hour pre-treatment with SSO, followed by the addition of Compound 2 for two hours, followed by the removal of SSO and Compound 2, and finally a 4-hour protein translation period (FIG. 10).
smiles,measurement,setting,value
CCOc1nn(C2CCNCC2)cc1Nc1ncc(F)c(-n2ccc3c(C#N)cccc32)n1 [Compound 21],increase in SSO activity,"HeLa_Luc705 cells; 2 μM Luc 705 SSO, FIG. 24",increase in SSO activity
same,increase in SSO activity,"HeLa_Luc705 cells; 2 μM Luc 705 SSO, FIG. 26",induced an increase in SSO activity
same,increase in SSO activity relative to oligo only,N2A_Luc705 cells,induced an increase in SSO activity relative to oligo only
same,increase in SSO activity relative to oligo only,U2OS_Luc705 cells,induced an increase in SSO activity relative to oligo only
CCOc1nn(C2CCNCC2)cc1Nc1ncc(C(F)(F)F)c(-c2c[nH]c3ccccc23)n1 [Compound 7],increase in SSO activity,"HeLa_Luc705 cells; 2 μM Luc 705 SSO, FIG. 26",induced an increase in SSO activity
same,increase in SSO activity,"HeLa_Luc705 cells; 2 μM SSO, FIG. 23A",increase in SSO activity
COc1ccc2c(-c3nc(Nc4cn(C5CCNCC5)nc4OC)ncc3Cl)c[nH]c2c1 [Compound 5],quantitation of Gal9 recruitment over time,HeLa mCherry-Gal9 cells,time-dependent endosomal rupture
same,quantitation of Gal9 recruitment over time,Huh7 mCherry-Gal9 cells,time-dependent endosomal rupture
same,"GAL9 recruitment, reason for selection for further characterization",mCherry-GAL9 cells,efficacy at shorter-term timepoints
COc1nn(C2CCNCC2)cc1Nc1ncc(F)c(-n2ccc3ccc(C#N)cc32)n1 [Compound 22],increase in SSO activity relative to oligo only,N2A_Luc705 cells,induced an increase in SSO activity relative to oligo only
same,increase in SSO activity relative to oligo only,U2OS_Luc705 cells,induced an increase in SSO activity relative to oligo only
CCOc1nn(C2CCNCC2)cc1Nc1ncc(Cl)c(-c2c[nH]c3ccccc23)n1 [Compound 6],increase in functional SSO activity,"HeLa Luc705 cells; 5 μM compound, 1 μM SSO or 100 nM SSO, FIG. 2B",increase in activity
same,increase in SSO activity,"HeLa Luc705 cells; up to 6 hours at 10 μM, FIG. 11B",200 fold
same,relocalisation of Gal9 from cytosolic to punctate,HeLa mCherry-Gal9 cells,dose-dependent manner
same,window in concentration between induction of endosomal rupture and cytotoxicity,HeLa mCherry-Gal9 cells,narrow window
same,quantitation of Gal9 recruitment over time,HeLa mCherry-Gal9 cells,time-dependent endosomal rupture
same,relocalisation of Gal9 from cytosolic to punctate,Huh7 mCherry-Gal9 cells,dose-dependent manner
same,window in concentration between induction of endosomal rupture and cytotoxicity,Huh7 mCherry-Gal9 cells,narrow window
same,quantitation of Gal9 recruitment over time,Huh7 mCherry-Gal9 cells,time-dependent endosomal rupture
same,"GAL9 recruitment, reason for selection for further characterization",mCherry-GAL9 cells,efficacy at shorter-term timepoints
COc1nn(C2CCNCC2)cc1Nc1ncc(C#N)c(-n2ccc3c(C(F)(F)F)cccc32)n1 [Compound 20],increase in SSO activity relative to oligo only,U2OS_Luc705 cells,induced an increase in SSO activity relative to oligo only
"O=C(Nc1nc2ccccc2n1CCN1CCCC1)c1cc2cc(Cl)ccc2o1 [UNC2383, reference compound]",relocalisation of Gal9 from cytosolic to punctate,HeLa mCherry-Gal9 cells,dose-dependent manner
same,window in concentration between induction of endosomal rupture and cytotoxicity,HeLa mCherry-Gal9 cells,narrow window
same,relocalisation of Gal9 from cytosolic to punctate,Huh7 mCherry-Gal9 cells,dose-dependent manner
same,window in concentration between induction of endosomal rupture and cytotoxicity,Huh7 mCherry-Gal9 cells,narrow window
same,quantitation of Gal9 recruitment over time,Huh7 mCherry-Gal9 cells,time-dependent endosomal rupture
COc1nn(C2CCNCC2)cc1Nc1ncc(F)c(-c2c[nH]c3cccc(C)c23)n1 [Compound 25],increase in SSO activity relative to oligo only,U2OS_Luc705 cells,induced an increase in SSO activity relative to oligo only
COc1nn(C2CCN(C)CC2)cc1Nc1ncc(F)c(-n2ccc3c(C#N)cccc32)n1 [Compound 8],increase in SSO activity,"HeLa_Luc705 cells; 2 μM Luc 705 SSO, FIG. 24",increase in SSO activity
same,increase in SSO activity,"HeLa_Luc705 cells; 2 μM Luc 705 SSO, FIG. 26",induced an increase in SSO activity
same,increase in SSO activity relative to oligo only,N2A_Luc705 cells,induced an increase in SSO activity relative to oligo only
same,increase in SSO activity relative to oligo only,U2OS_Luc705 cells,induced an increase in SSO activity relative to oligo only
same,"GAL9 response, rank among exemplified compounds","HeLa mCherry-Gal9 cells; doses 1.25-5 μM, 1, 2, 16 hours, FIG. 34",second most potent
same,dose from which GAL9+ remodelling is induced,Huh7 mCherry-Gal9 cells; FIG. 40,≥ 2.5 µM
same,"GAL9 response, rank among exemplified compounds","Huh7 mCherry-Gal9 cells; doses 1.25-5 μM, 1, 2, 16 hours, FIG. 33",second most potent
